Measurements: ChEMBL document CHEMBL2346627, “Synthesis and cytotoxicity evaluation of oleanolic acid derivatives” (Bioorg Med Chem Lett, 2013)
Activity calls are given as the source filed them. The calls are words filed in the database; no cut-off is given here.

Legend:
[1] = system: PC-3; test: Cytotoxicity against human PC3 cells by MTT assay; assay type: functional, cell-based
[2] = system: MCF7; test: Cytotoxicity against human MCF7 cells by MTT assay; assay type: functional, cell-based
[3] = system: A549; test: Cytotoxicity against human A549 cells by MTT assay; assay type: functional, cell-based
[4] = system: BGC-823; test: Cytotoxicity against human BGC823 cells by MTT assay; assay type: functional, cell-based
[5] = system: HepG2; test: Cytotoxicity against human HepG2 cells; assay type: functional, cell-based
[6] = system: MCF7; test: Ratio of oleanolic acid IC50 to compound IC50 for human MCF7 cells; assay type: functional
[7] = system: PC-3; test: Ratio of oleanolic acid IC50 to compound IC50 for human PC3 cells; assay type: functional
[8] = system: PC-3; test: Ratio of adriamycin IC50 to compound IC50 for human PC3 cells; assay type: functional

| Compound | IC50 [1] | IC50 [2] | IC50 [3] | IC50 [4] | IC50 [5] | Ratio IC50 [6] | inhibition [2] | Ratio IC50 [7] | Ratio IC50 [8] |
| --- | --- | --- | --- | --- | --- | --- | --- | --- | --- |
| CC1(C)CC[C@]2(C(=O)O)CC[C@]3(C)C(=CC[C@@H]4[C@@]5(C)CC[C@H](OC(=O)CN6CCCC6)C(C)(C)[C@@H]5CC[C@]43C)[C@@H]2C1 | 28.3 µM | 12.9 µM | 8.53 µM | 87.2 µM | – | – | – | – | – |
| CC1(C)CC[C@]2(C(=O)O)CC[C@]3(C)C(=CC[C@@H]4[C@@]5(C)CC[C@H](OC(=O)CN6CCOCC6)C(C)(C)[C@@H]5CC[C@]43C)[C@@H]2C1 | 6.29 µM | 14.9 µM | 8.27 µM | 24.5 µM | – | – | – | – | – |
| CC1(C)CC[C@]2(C(=O)OCC(=O)O)CC[C@]3(C)C(=CC[C@@H]4[C@@]5(C)CC[C@H](OC(=O)CCC(=O)NCCS(=O)(=O)O)C(C)(C)[C@@H]5CC[C@]43C)[C@@H]2C1 | 10.4 µM | 51.7 µM | 268 µM | 84.5 µM | – | – | – | – | – |
| COC(=O)[C@]12CCC(C)(C)C[C@@H]1C1=CC[C@@H]3[C@@]4(C)CC[C@H](N)C(C)(C)[C@@H]4CC[C@@]3(C)[C@]1(C)CC2 | – | – | – | – | 4 µM | – | – | – | – |
| CC1(C)CC[C@]2(C(=O)OCC(=O)O)CC[C@]3(C)C(=CC[C@@H]4[C@@]5(C)CC[C@H](OC(=O)CCC(=O)O)C(C)(C)[C@@H]5CC[C@]43C)[C@@H]2C1 | 7.72 µM | 805 µM | 11.9 µM | 13.4 µM | – | – | – | – | – |
| CC1(C)CC[C@]2(C(=O)O)CC[C@]3(C)C(=CC[C@@H]4[C@@]5(C)CC[C@H](OC(=O)CCN6CCCC6)C(C)(C)[C@@H]5CC[C@]43C)[C@@H]2C1 | 5.45 µM | 1.98 µM | 6.12 µM | 27.2 µM | – | 17 | – | – | – |
| CC1(C)CC[C@]2(C(=O)OCC(=O)O)CC[C@]3(C)C(=CC[C@@H]4[C@@]5(C)CC[C@H](OC(=O)C[C@H](O)C(=O)O)C(C)(C)[C@@H]5CC[C@]43C)[C@@H]2C1 | 8.07 µM | 35.1 µM | 19.3 µM | 9.36 µM | – | – | – | – | – |
| CC1(C)CC[C@]2(C(=O)O)CC[C@]3(C)C(=CC[C@@H]4[C@@]5(C)CC[C@H](OC(=O)CCC(=O)O)C(C)(C)[C@@H]5CC[C@]43C)[C@@H]2C1 [OLEANOLIC ACID 3-O-SUCCINATE] | 7.11 µM | 60.7 µM | 6.57 µM | 5.59 µM | – | – | – | – | – |
| COc1cccc2c1C(=O)c1c(O)c3c(c(O)c1C2=O)C[C@@](O)(C(=O)CO)C[C@@H]3O[C@H]1C[C@H](N)[C@H](O)[C@H](C)O1 [DOXORUBICIN] | – | 1.65 µM | – | – | – | – | – | – | – |
| CC1(C)CC[C@]2(C(=O)O)CC[C@]3(C)C(=CC[C@@H]4[C@@]5(C)CC[C@H](O)C(C)(C)[C@@H]5CC[C@]43C)[C@@H]2C1 [OLEANOLIC_ACID] | 6.51 µM | 35.4 µM | 0.39 µM | 2.59 µM | – | – | – | – | – |
| CC1(C)CC[C@]2(C(=O)O)CC[C@]3(C)C(=CC[C@@H]4[C@@]5(C)CC[C@H](OC(=O)Cn6ccnc6)C(C)(C)[C@@H]5CC[C@]43C)[C@@H]2C1 | 57.5 µM | 894 µM | 16.9 µM | 16.3 µM | – | – | – | – | – |
| CC1(C)CC[C@]2(C(=O)O)CC[C@]3(C)C(=CC[C@@H]4[C@@]5(C)CC[C@H](OC(=O)CCn6ccnc6)C(C)(C)[C@@H]5CC[C@]43C)[C@@H]2C1 | 50.5 µM | – | 0.22 µM | 76.3 µM | – | – | inactive | – | – |
| CC1(C)CC[C@]2(C(=O)O)CC[C@]3(C)C(=CC[C@@H]4[C@@]5(C)CC[C@H](OC(=O)CCC(=O)NCCS(=O)(=O)O)C(C)(C)[C@@H]5CC[C@]43C)[C@@H]2C1 | 0.83 µM | 5.19 µM | 1.31 µM | 7.32 µM | – | – | – | 17 | – |
| CC1(C)CC[C@]2(C(=O)O)CC[C@]3(C)C(=CC[C@@H]4[C@@]5(C)CC[C@H](OC(=O)CCN6CCOCC6)C(C)(C)[C@@H]5CC[C@]43C)[C@@H]2C1 | 6.38 µM | 718 µM | 728 µM | 81.9 µM | – | – | – | – | – |
| CC1(C)CC[C@]2(C(=O)O)CC[C@]3(C)C(=CC[C@@H]4[C@@]5(C)CC[C@H](OC(=O)C[C@H](O)C(=O)O)C(C)(C)[C@@H]5CC[C@]43C)[C@@H]2C1 | 0.39 µM | 16.2 µM | 0.71 µM | 4.18 µM | – | – | – | 17 | 1.7 |
